Legend:
[1] = molecular target: T1, D(2) dopamine receptor (Rattus norvegicus, UniProt P61169); test: Affinity of the Compound for Dopamine receptor D2 in rat striatal membrane was determined in vitro using Dopamine Antagonist [3H]spiperone as ligand; Value ranges from (580-1050); format: cell membranes, Striatum
[2] = molecular target: D(1A) dopamine receptor (Rattus norvegicus, UniProt P18901); test: Affinity of the Compound for Dopamine D1 receptor in rat striatal membrane was determined in vitro using Dopamine Antagonist [3H]SCH-23390 as ligand.; format: cell membranes, Striatum
[3] = test system: Rattus norvegicus; test: Dose required to inhibit the synthesis of DOPA in rat brain was determined intraperitoneally; format: functional; settings: ip
[4] = molecular target: T1, D(2) dopamine receptor; test: Affinity of the Compound for Dopamine receptor D2 in rat striatal membrane was determined in vitro using Dopamine agonist [3H]N-propylnorapomorphine as ligand; Value ranges from (204-360); format: cell membranes, Striatum
[5] = test system: Rattus norvegicus; test: Percent inhibition of spontaneous DA neuronal firing in the substantia nigra of anesthetized rats was determined.; format: functional
[6] = molecular target: T1, D(2) dopamine receptor; test: Affinity of the Compound for Dopamine receptor D2 in rat striatal membrane was determined in vitro using Dopamine Antagonist [3H]spiperone as ligand; Value ranges from (270-500); format: cell membranes, Striatum
[7] = molecular target: T1, D(2) dopamine receptor; test: Affinity of the Compound for Dopamine receptor D2 in rat striatal membrane was determined in vitro using Dopamine agonist [3H]N-propylnorapomorphine as ligand; Value ranges from (70-150); format: cell membranes, Striatum
[8] = molecular target: T1, D(2) dopamine receptor; test: Affinity of the Compound for Dopamine receptor D2 in rat striatal membrane was determined in vitro using Dopamine agonist [3H]N-propylnorapomorphine as ligand; Value ranges from (80-119); format: cell membranes, Striatum
[9] = molecular target: T1, D(2) dopamine receptor; test: Affinity of the Compound for Dopamine receptor D2 in rat striatal membrane was determined in vitro using Dopamine Antagonist [3H]spiperone as ligand; Value ranges from (124-550); format: cell membranes, Striatum
[10] = test system: Rattus norvegicus; test: Percent reversal of the increase in rat striatum DOPA accumulation produced by pretreatment with GBL (750 mg/kg ip) and NSD 1015 (100 mg/kg) when 2 mg/kg was administered.; format: functional

T1 sequence (P61169 whole entry): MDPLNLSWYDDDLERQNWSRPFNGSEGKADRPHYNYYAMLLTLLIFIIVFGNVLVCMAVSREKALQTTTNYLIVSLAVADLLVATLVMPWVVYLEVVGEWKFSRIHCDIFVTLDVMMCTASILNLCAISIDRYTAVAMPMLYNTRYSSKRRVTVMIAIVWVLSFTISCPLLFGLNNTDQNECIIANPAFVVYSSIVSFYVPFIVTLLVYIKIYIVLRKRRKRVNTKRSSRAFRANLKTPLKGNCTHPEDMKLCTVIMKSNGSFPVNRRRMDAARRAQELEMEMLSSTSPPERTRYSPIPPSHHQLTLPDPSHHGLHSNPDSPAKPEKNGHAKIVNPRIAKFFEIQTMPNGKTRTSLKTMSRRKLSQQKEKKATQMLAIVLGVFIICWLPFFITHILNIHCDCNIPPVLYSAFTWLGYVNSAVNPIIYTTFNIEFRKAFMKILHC
Sequence of D(1A) dopamine receptor (P18901 whole entry): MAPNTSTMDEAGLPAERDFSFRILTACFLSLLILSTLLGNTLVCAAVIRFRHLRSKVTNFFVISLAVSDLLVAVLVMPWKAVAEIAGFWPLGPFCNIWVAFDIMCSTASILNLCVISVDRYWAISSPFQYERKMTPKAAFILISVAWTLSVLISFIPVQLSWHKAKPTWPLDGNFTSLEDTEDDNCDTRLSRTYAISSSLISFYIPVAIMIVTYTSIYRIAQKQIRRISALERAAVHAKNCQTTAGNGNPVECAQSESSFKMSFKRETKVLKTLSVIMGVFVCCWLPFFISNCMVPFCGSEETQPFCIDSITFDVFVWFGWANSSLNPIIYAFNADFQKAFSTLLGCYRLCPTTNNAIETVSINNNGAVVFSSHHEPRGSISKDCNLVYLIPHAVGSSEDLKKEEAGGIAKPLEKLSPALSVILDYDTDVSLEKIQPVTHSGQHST

| Compound | IC50 [1] [nM] | IC50 [2] [nM] | ED50 [3] [mg/kg] | IC50 [4] [nM] | Inhibition [5] [%] | IC50 [6] [nM] | IC50 [7] [nM] | IC50 [8] [nM] | IC50 [9] [nM] | Reversal [10] [%] |
| --- | --- | --- | --- | --- | --- | --- | --- | --- | --- | --- |
| Nc1nc2c(s1)C[C@@H](N1CCN(c3ccccn3)CC1)CC2 | 800 | > 15000 | 4.8 | 280 | 100 | – | – | – | – | – |
| Nc1nc2c(s1)C[C@H](N1CCN(c3ccccn3)CC1)CC2 | – | > 15000 | 7 | – | 85 | 440 | 105 | – | – | – |
| Nc1nc2c(s1)CC(N1CCN(c3ccccn3)CC1)CC2 (racemic) | – | > 15000 | 4.4 | – | 97 | – | – | 100 | 320 | – |
| CN1CCc2cccc3c2[C@H]1Cc1ccc(O)c(O)c1-3 [APOMORPHINE] | – | – | – | – | 100 | – | – | – | – | 100 |

— ChEMBL document CHEMBL1152062, “Novel 4,5,6,7-tetrahydrobenzothiazole dopamine agonists display very low stereoselectivity in their interaction with dopamine receptors” (Bioorg Med Chem Lett, 1991)
